Measurements reported in patent publication US10605810B2, “Pincers comprising antibody and aptamer conjugated via a linker which binds to the same target material and use thereof” (University-Industry Cooperation Group Of Kyung Hee …, priority 2013, dated 2020).
{NH2C6} = aminohexyl linker, H2N-(CH2)6-

Experiments:
[1] = target: T1, thrombin (Homo sapiens, UniProt P00734); details: read-out: Kd^app values reported in the art; cited from earlier work
T1 construct: 200 μL (2 nmol) of the thrombin solution prepared at a concentration of 10 pmol/pt was prepared; purchased Research Laboratories

[2] = tested on: SK-BR-3 cells; experiment: Cell viability by MTT reduction assay, SK-BR-3
Protocol: In order to maintain the cells in the log phase, a fresh medium was resupplied two or three times a week.
The cell viability was measured using the standard 3-(4,5-dimethylthiazol-2-yl)-2,5-diphenyltetrazolium bromide (MTT) reduction assay. Simply, cells that grow exponentially were inoculated at a density of 5×10^3 per well in a 96-well with flat bottom plate (200 μL/well) and cultured at 37° C. for 24 hours.
10 μL of MTT solution was added to each well, and the cells were further cultured at 37° C. for 4 hours. The amount of formazan product was measured at 570 nm. The cell survival fraction was calculated as a percentage of the untreated control group.

[3] = tested on: HER2 epitope peptide; details: read-out: Kd for HER2 epitope peptide (reported); cited from earlier work
[4] = target: extracellular domain of a HER2 protein (Homo sapiens, UniProt P04626); details: cited from earlier work

Question: For “15-mer DNA aptamer: 5′-H2N—(CH2)6-GGT TGG TGT GGT TGG-3′, specifically binds to thrombin”, which Kd [1] is on record?
Answer: 20.2 nM

Question: With “29-mer DNA aptamer: 5′-H2N—(CH2)6-AGTCCGTGGTAGGGCAGGTTGGGGTGACT-3′, specifically binds to thrombin” as the molecule, how does the Kd [1] read?
Answer: 3.5 nM

Question: Which IC50 ([2]; Homo sapiens, SK-BR-3, 24 h, read-out: IC50 for SK-BR-3) does the source give for `COc1cccc2c1C(=O)c1c(O)c3c(c(O)c1C2=O)C[C@@](O)(C(=O)CO)C[C@@H]3O[C@H]1C[C@H](N)[C@H](O)[C@H](C)O1` [Dox, doxorubicin] here?
Answer: 43.9 nM

B1: anti-HER2 aptamer: anti-human epidermal growth factor 2 (HER2) aptamer, SEQ ID NO: 3, purchased from Bioneers (nucleic acid)
DNA: AACCGCCCAAATCCCTAAGAGTCTGCACTTGTCATTTTGTATATGTATTTGGTTTTTGGCTCTCACAGACACACTACACACGCACA
modifications: DNA, 5' {NH2C6}, backbone not given here; further chemistry not fully specified
Question: With B1 as the molecule, how does the Kd [3] read?
Answer: 18.9 nM

Question: And the Kd [4]?
Answer: 315 nM

Question: What about the “cytotoxicity against SK-BR-3 cells” value ([2]; 0 nM to 100 nM, FIG. 10) of the same molecule?
Answer: does not have cytotoxicity
